How the values were obtained:
[1] = test system: mRNA expressed from the genes (A) to (D) in rat liver; test: Behavior of genes (mRNA expression level, oligo-DNA microarray) in rat liver after 28-day oral administration; assay type: in vivo; details: for Behavior of gene caused by administration of chemical substance, Gene No. 4846 / Behavior of gene caused by administration of chemical substance, Gene No. 2026 / Behavior of gene caused by administration of chemical substance, Gene No. 4218 / Behavior of gene caused by administration of chemical substance, Gene No. 6182 / Behavior of gene caused by administration of chemical substance, Gene No. 5600: gene group (A); for Behavior of gene caused by administration of chemical substance, Gene No. 4846: Unigene No. Rn.144554; for Behavior of gene caused by administration of chemical substance, Gene No. 2026 / Behavior of gene caused by administration of chemical substance, Gene No. 4218: Unigene No. Rn.167075; for Behavior of gene caused by administration of chemical substance, Gene No. 6182: Unigene No. Rn.5834; for Behavior of gene caused by administration of chemical substance, Gene No. 5600: Unigene No. Rn.9836; for Behavior of gene caused by administration of chemical substance, Gene No. 1494 / Behavior of gene caused by administration of chemical substance, Gene No. 2045 / Behavior of gene caused by administration of chemical substance, Gene No. 2203: gene group (B); for Behavior of gene caused by administration of chemical substance, Gene No. 1494: Unigene No. Rn.1430; for Behavior of gene caused by administration of chemical substance, Gene No. 2045: Unigene No. Rn.19329; for Behavior of gene caused by administration of chemical substance, Gene No. 2203: Unigene No. Rn.21240; for Behavior of gene caused by administration of chemical substance, Gene No. 533 / Behavior of gene caused by administration of chemical substance, Gene No. 725 / Behavior of gene caused by administration of chemical substance, Gene No. 1163 / Behavior of gene caused by administration of chemical substance, Gene No. 4973 / Behavior of gene caused by administration of chemical substance, Gene No. 4095 / Behavior of gene caused by administration of chemical substance, Gene No. 1334 / Behavior of gene caused by administration of chemical substance, Gene No. 6620 / Behavior of gene caused by administration of chemical substance, Gene No. 6303 / Behavior of gene caused by administration of chemical substance, Gene No. 5878 / Behavior of gene caused by administration of chemical substance, Gene No. 1131 / Behavior of gene caused by administration of chemical substance, Gene No. 1562 / Behavior of gene caused by administration of chemical substance, Gene No. 1741 / Behavior of gene caused by administration of chemical substance, Gene No. 893 / Behavior of gene caused by administration of chemical substance, Gene No. 6026 / Behavior of gene caused by administration of chemical substance, Gene No. 154 / Behavior of gene caused by administration of chemical substance, Gene No. 1993 / Behavior of gene caused by administration of chemical substance, Gene No. 813 / Behavior of gene caused by administration of chemical substance, Gene No. 2494 / Behavior of gene caused by administration of chemical substance, Gene No. 2546 / Behavior of gene caused by administration of chemical substance, Gene No. 3776 / Behavior of gene caused by administration of chemical substance, Gene No. 3929 / Behavior of gene caused by administration of chemical substance, Gene No. 1119 / Behavior of gene caused by administration of chemical substance, Gene No. 6742 / Behavior of gene caused by administration of chemical substance, Gene No. 5634: gene group (C); for Behavior of gene caused by administration of chemical substance, Gene No. 533: Unigene No. Rn.106184; for Behavior of gene caused by administration of chemical substance, Gene No. 725: Unigene No. Rn.108075; for Behavior of gene caused by administration of chemical substance, Gene No. 1163: Unigene No. Rn.11766; for Behavior of gene caused by administration of chemical substance, Gene No. 4973: Unigene No. Rn.118529; for Behavior of gene caused by administration of chemical substance, Gene No. 4095: Unigene No. Rn.119024; for Behavior of gene caused by administration of chemical substance, Gene No. 1334 / Behavior of gene caused by administration of chemical substance, Gene No. 6620: Unigene No. Rn.120914; for Behavior of gene caused by administration of chemical substance, Gene No. 6303: Unigene No. Rn.123063; for Behavior of gene caused by administration of chemical substance, Gene No. 5878: Unigene No. Rn.143213; for Behavior of gene caused by administration of chemical substance, Gene No. 1131: Unigene No. Rn.144946; for Behavior of gene caused by administration of chemical substance, Gene No. 1562: Unigene No. Rn.14744; for Behavior of gene caused by administration of chemical substance, Gene No. 1741: Unigene No. Rn.1647; for Behavior of gene caused by administration of chemical substance, Gene No. 893: Unigene No. Rn.164817; for Behavior of gene caused by administration of chemical substance, Gene No. 6026: Unigene No. Rn.167685; for Behavior of gene caused by administration of chemical substance, Gene No. 154: Unigene No. Rn.185941; for Behavior of gene caused by administration of chemical substance, Gene No. 1993: Unigene No. Rn.18728; for Behavior of gene caused by administration of chemical substance, Gene No. 813: Unigene No. Rn.201760; for Behavior of gene caused by administration of chemical substance, Gene No. 2494: Unigene No. Rn.23969; for Behavior of gene caused by administration of chemical substance, Gene No. 2546: Unigene No. Rn.24561; for Behavior of gene caused by administration of chemical substance, Gene No. 3776: Unigene No. Rn.43232; for Behavior of gene caused by administration of chemical substance, Gene No. 3929: Unigene No. Rn.4620; for Behavior of gene caused by administration of chemical substance, Gene No. 1119: Unigene No. Rn.9757; for Behavior of gene caused by administration of chemical substance, Gene No. 6742: Unigene No. Rn.9779; for Behavior of gene caused by administration of chemical substance, Gene No. 5634: Unigene No. Rn.9862; for Behavior of gene caused by administration of chemical substance, Gene No. 5726: gene group (D), Unigene No. Rn.9939
How it was run: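 Rat liver RNA after 28 days of daily gavage dosing (male F344, 5 weeks old, four per group). A change reaching 1.5-fold, or 1/1.5, against solvent control scores as significant; opposite direction versus another carcinogen scores as not significant.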

liver = details: classification of the substance (Cr+/Cr−); cited from earlier work
rodent = details: classification of the substance (C+/C−); cited from earlier work
[2] = classification of the substance (M+/M−); cited from earlier work

IC(I)I [TS039, Iodoform]
Behavior of gene caused by administration of chemical substance, Gene No. 4846 [1]: −
Behavior of gene caused by administration of chemical substance, Gene No. 2026 [1]: −
Behavior of gene caused by administration of chemical substance, Gene No. 4218 [1]: −
Behavior of gene caused by administration of chemical substance, Gene No. 6182 [1]: −
Behavior of gene caused by administration of chemical substance, Gene No. 5600 [1]: −
Behavior of gene caused by administration of chemical substance, Gene No. 1494 [1]: +
Behavior of gene caused by administration of chemical substance, Gene No. 2045 [1]: −
Behavior of gene caused by administration of chemical substance, Gene No. 2203 [1]: −
Behavior of gene caused by administration of chemical substance, Gene No. 533 [1]: −
Behavior of gene caused by administration of chemical substance, Gene No. 725 [1]: −
Behavior of gene caused by administration of chemical substance, Gene No. 1163 [1]: −
Behavior of gene caused by administration of chemical substance, Gene No. 4973 [1]: −
Behavior of gene caused by administration of chemical substance, Gene No. 4095 [1]: −
Behavior of gene caused by administration of chemical substance, Gene No. 1334 [1]: +
Behavior of gene caused by administration of chemical substance, Gene No. 6620 [1]: +
Behavior of gene caused by administration of chemical substance, Gene No. 6303 [1]: +
Behavior of gene caused by administration of chemical substance, Gene No. 5878 [1]: −
Behavior of gene caused by administration of chemical substance, Gene No. 1131 [1]: −
Behavior of gene caused by administration of chemical substance, Gene No. 1562 [1]: −
Behavior of gene caused by administration of chemical substance, Gene No. 1741 [1]: +
Behavior of gene caused by administration of chemical substance, Gene No. 893 [1]: +
Behavior of gene caused by administration of chemical substance, Gene No. 6026 [1]: −
Behavior of gene caused by administration of chemical substance, Gene No. 154 [1]: +
Behavior of gene caused by administration of chemical substance, Gene No. 1993 [1]: −
Behavior of gene caused by administration of chemical substance, Gene No. 813 [1]: −
Behavior of gene caused by administration of chemical substance, Gene No. 2494 [1]: −
Behavior of gene caused by administration of chemical substance, Gene No. 2546 [1]: −
Behavior of gene caused by administration of chemical substance, Gene No. 3776 [1]: −
Behavior of gene caused by administration of chemical substance, Gene No. 3929 [1]: −
Behavior of gene caused by administration of chemical substance, Gene No. 1119 [1]: −
Behavior of gene caused by administration of chemical substance, Gene No. 6742 [1]: +
Behavior of gene caused by administration of chemical substance, Gene No. 5634 [1]: +
Behavior of gene caused by administration of chemical substance, Gene No. 5726 [1]: −
Liver carcinogenicity (liver): Cr−
Carcinogenicity (rodent): C−
Mutagenicity by Ames test [2]: M+

Cn1c(N)nc2ncc(-c3ccccc3)cc21 [TS045, 2-amino-1-methyl-6-phenylimidazo[4,5-b]-pyridine]
Behavior of gene caused by administration of chemical substance, Gene No. 4846 ([1]; mRNA vs vehicle control group): −
Behavior of gene caused by administration of chemical substance, Gene No. 2026 ([1]; mRNA vs vehicle control group): −
Behavior of gene caused by administration of chemical substance, Gene No. 4218 ([1]; mRNA vs vehicle control group): −
Behavior of gene caused by administration of chemical substance, Gene No. 6182 ([1]; mRNA vs vehicle control group): −
Behavior of gene caused by administration of chemical substance, Gene No. 5600 ([1]; mRNA vs vehicle control group): −
Behavior of gene caused by administration of chemical substance, Gene No. 1494 ([1]; mRNA vs vehicle control group): −
Behavior of gene caused by administration of chemical substance, Gene No. 2045 ([1]; mRNA vs vehicle control group): +
Behavior of gene caused by administration of chemical substance, Gene No. 2203 ([1]; mRNA vs vehicle control group): +
Behavior of gene caused by administration of chemical substance, Gene No. 533 ([1]; mRNA vs vehicle control group): −
Behavior of gene caused by administration of chemical substance, Gene No. 725 ([1]; mRNA vs vehicle control group): −
Behavior of gene caused by administration of chemical substance, Gene No. 1163 ([1]; mRNA vs vehicle control group): −
Behavior of gene caused by administration of chemical substance, Gene No. 4973 ([1]; mRNA vs vehicle control group): −
Behavior of gene caused by administration of chemical substance, Gene No. 4095 ([1]; mRNA vs vehicle control group): −
Behavior of gene caused by administration of chemical substance, Gene No. 1334 ([1]; mRNA vs vehicle control group): −
Behavior of gene caused by administration of chemical substance, Gene No. 6620 ([1]; mRNA vs vehicle control group): −
Behavior of gene caused by administration of chemical substance, Gene No. 6303 ([1]; mRNA vs vehicle control group): −
Behavior of gene caused by administration of chemical substance, Gene No. 5878 ([1]; mRNA vs vehicle control group): −
Behavior of gene caused by administration of chemical substance, Gene No. 1131 ([1]; mRNA vs vehicle control group): −
Behavior of gene caused by administration of chemical substance, Gene No. 1562 ([1]; mRNA vs vehicle control group): −
Behavior of gene caused by administration of chemical substance, Gene No. 1741 ([1]; mRNA vs vehicle control group): −
Behavior of gene caused by administration of chemical substance, Gene No. 893 ([1]; mRNA vs vehicle control group): −
Behavior of gene caused by administration of chemical substance, Gene No. 6026 ([1]; mRNA vs vehicle control group): −
Behavior of gene caused by administration of chemical substance, Gene No. 154 ([1]; mRNA vs vehicle control group): −
Behavior of gene caused by administration of chemical substance, Gene No. 1993 ([1]; mRNA vs vehicle control group): −
Behavior of gene caused by administration of chemical substance, Gene No. 813 ([1]; mRNA vs vehicle control group): −
Behavior of gene caused by administration of chemical substance, Gene No. 2494 ([1]; mRNA vs vehicle control group): +
Behavior of gene caused by administration of chemical substance, Gene No. 2546 ([1]; mRNA vs vehicle control group): −
Behavior of gene caused by administration of chemical substance, Gene No. 3776 ([1]; mRNA vs vehicle control group): −
Behavior of gene caused by administration of chemical substance, Gene No. 3929 ([1]; mRNA vs vehicle control group): −
Behavior of gene caused by administration of chemical substance, Gene No. 1119 ([1]; mRNA vs vehicle control group): −
Behavior of gene caused by administration of chemical substance, Gene No. 6742 ([1]; mRNA vs vehicle control group): −
Behavior of gene caused by administration of chemical substance, Gene No. 5634 ([1]; mRNA vs vehicle control group): −
Behavior of gene caused by administration of chemical substance, Gene No. 5726 ([1]; mRNA vs vehicle control group): +
Liver carcinogenicity (liver): Cr−
Carcinogenicity (rodent): C+
Mutagenicity by Ames test [2]: M+

From patent US20110039721A1, “METHOD FOR PREDICTION ABOUT CARCINOGENICITY OF SUBSTANCE IN RODENT” (Chemicals Evaluation and Research Institute, priority 2007, published 2011)
